Reference: patent US20250228239A1, “MOLECULES HAVING PESTICIDAL UTILITY, AND INTERMEDIATES, COMPOSITIONS, AND PROCESSES, RELATED THERETO” (priority 2024, published 2025)
Read-outs that look alike come from different tables or passages of the source.

What was measured:
[1] = test system: Cabbage Looper (Trichoplusia ni, TRIPNI); experiment: Bioassays on Cabbage Looper (CL), 128-well diet tray assay; type: in vivo; conditions: Trichoplusia ni
Description: (§1) Certain molecules disclosed in this document were tested against BAW and CL using procedures described in the following examples. In the reporting of the results, the “BAW & CL Rating Table” was used (See Table Section).
Bioassays on CL were conducted using a 128-well diet tray assay. One to five second instar CL larvae were placed in each well (3 mL) of the diet tray that had been previously filled with 1 mL of artificial diet to which 50 μg/cm^2 of the test molecule (dissolved in 50 μL of 90:10 acetone-water mixture) had been applied (to each of eight wells) and then allowed to dry. Trays were covered with a clear self-adhesive cover, vented to allow gas exchange, and held at 25° C., 14:10 light-dark for five to seven days. Percent mortality was recorded for the larvae in each well; activity in the eight wells was then averaged. The results are indicated in the table entitled “Table ABC: Biological Results” (See Table Section).

[2] = test system: Beet Armyworm (Spodoptera exigua, LAPHEG); experiment: Bioassays on Beet Armyworm (BAW), 128-well diet tray assay; type: in vivo; conditions: Spodoptera exigua
Description: as §1
Bioassays on BAW were conducted using a 128-well diet tray assay. One to five second instar BAW larvae were placed in each well (3 mL) of the diet tray that had been previously filled with 1 mL of artificial diet to which 50 μg/cm^2 of the test molecule (dissolved in 50 μL of 90:10 acetone-water mixture) had been applied (to each of eight wells) and then allowed to dry. Trays were covered with a clear self-adhesive cover, vented to allow gas exchange, and held at 25° C., 14:10 light-dark for five to seven days. Percent mortality was recorded for the larvae in each well; activity in the eight wells was then averaged. The results are indicated in the table entitled “Table ABC: Biological Results” (See Table Section).

[3] = Cabbage Looper, rating class, read-out: CL
[4] = Beet Armyworm, rating class, read-out: BAW
[5] = Table ABC: Biological Results, species CL, read-out: CL
[6] = Table ABC: Biological Results, species BAW, read-out: BAW

Structure (SMILES)	pest or weed control at 50 µg/cm2 [2, 4] [%]	pest or weed control at 50 µg/cm2 [1, 5] [%]	pest or weed control at 50 µg/cm2 [2, 6] [%]	further results
Cc1cc(NC(=O)[C@H]2[C@H](c3cc(Cl)c(Cl)c(Cl)c3)C2(Cl)Cl)cc(C(=O)Nc2c(F)ccc(NC(=O)C(F)(F)F)c2F)c1Cl [F1432, 2-Chloro-5-((1R,3R)-2,2-dichloro-3-(3,4,5-trichlorophenyl)cyclopropane-1-carboxamido)-N-(2,6-difluoro-3-(2,2,2-trifluoroacetamido)phenyl)-3-methylbenzamide]	50 to 100			pest or weed control at 50 µg/cm2 [1, 3]: 50 to 100%
Nc1cc(F)c(NC(=O)c2cc(NC(=O)[C@H]3[C@H](c4cc(Cl)cc(Cl)c4)C3(Cl)Cl)ccc2Cl)c(F)c1 [F1027, N-(4-Amino-2,6-difluorophenyl)-2-chloro-5-((1R,3R)-2,2-dichloro-3-(3,5-dichlorophenyl)cyclopropane-1-carboxamido)benzamide]		50 to 100	50 to 100	
O=C(COC(F)(F)F)Nc1ccc(F)c(NC(=O)c2cc(NC(=O)[C@H]3[C@H](c4cc(Cl)c(Cl)c(Cl)c4)C3(Cl)Cl)cc(F)c2F)c1F [F1777, 5-((1R,3R)-2,2-Dichloro-3-(3,4,5-trichlorophenyl)cyclopropane-1-carboxamido)-N-(2,6-difluoro-3-(2-(trifluoromethoxy)acetamido)phenyl)-2,3-difluorobenzamide]				pest or weed control at 50 µg/cm2 ([1]; Cabbage Looper, Table ABC / ABC-DP rating, read-out: CL rating): 50 to 100%; pest or weed control at 50 µg/cm2 ([2]; Beet Armyworm, Table ABC / ABC-DP rating, read-out: BAW rating): 50 to 100%
CC(=O)Nc1c(F)ccc(NC(=O)c2cc(NC(=O)[C@H]3[C@H](c4ccc(F)c(C(F)(F)F)c4)C3(Cl)Cl)ccc2Cl)c1F [F1231, N-(3-Acetamido-2,4-difluorophenyl)-2-chloro-5-((1R,3R)-2,2-dichloro-3-(4-fluoro-3-(trifluoromethyl)phenyl)cyclopropane-1-carboxamido)benzamide]		50 to 100	50 to 100	
Cc1cc(NC(=O)[C@H]2[C@H](c3ccc(F)c(C(F)(F)F)c3)C2(Cl)Cl)cc(C(=O)Nc2ccc(F)c(NC(=O)C(F)(F)F)c2F)c1Cl [F1495, 2-Chloro-5-((1R,3R)-2,2-dichloro-3-(4-fluoro-3-(trifluoromethyl)phenyl)cyclopropane-1-carboxamido)-N-(2,4-difluoro-3-(2,2,2-trifluoroacetamido)phenyl)-3-methylbenzamide]	50 to 100			pest or weed control at 50 µg/cm2 [1, 3]: 50 to 100%
Nc1ccc(F)c(NC(=O)c2cc(NC(=O)[C@H]3[C@H](c4cc(Cl)c(Cl)c(Cl)c4)C3(Cl)Cl)cc(F)c2Cl)c1F [F1337, N-(3-Amino-2,6-difluorophenyl)-2-chloro-5-((1R,3R)-2,2-dichloro-3-(3,4,5-trichlorophenyl)cyclopropane-1-carboxamido)-3-fluorobenzamide]		50 to 100	50 to 100	
Cc1cc(NC(=O)[C@H]2[C@H](c3ccc(F)c(Cl)c3)C2(Cl)Cl)cc(C(=O)Nc2ccc(F)c(N(C(=O)OC(C)(C)C)C(=O)OC(C)(C)C)c2F)c1F (relative stereo) [F1138, trans-tert-Butyl-N-tert-butoxycarbonyl-N-[3-[[5-[[2,2-dichloro-3-(3-chloro-4-fluorophenyl)cyclopropanecarbonyl]amino]-2-fluoro-3-methylbenzoyl]amino]-2,6-difluorophenyl]carbamate]			0 to 50	
Cc1c(F)c(NC(=O)c2cc(NC(=O)[C@H]3[C@H](c4ccc(F)c(C(F)(F)F)c4)C3(Cl)Cl)ccc2Cl)cc(N(C(=O)OC(C)(C)C)C(=O)OC(C)(C)C)c1F [F1670, tert-Butyl N-tert-butoxycarbonyl-N-[5-[[2-chloro-5-[[(1R,3R)-2,2-dichloro-3-[4-fluoro-3-(trifluoromethyl)phenyl]cyclopropanecarbonyl]amino]benzoyl]amino]-2,4-difluoro-3-methyl-phenyl]carbamate]	0 to 50			
